Measurements published in the supplement of paper PMC11208160.

Experiment: recombinant barcode read abundance after kanamycin selection (control-corrected) (log10(CPM+1)); higher = more efficient recombination; sequences stand for … in AGTGCAGAGAAAATCGGCCAGTTTTCTCTGCCTGCAGTCCGCATGCCGT…AGATTTATGCAGCGGACTGCCTTTCTCCCAAAGTGATAAACCGGACAGTATCATGGACCGGTTTTCCCGGTAATCCGTATTTGCAAGGTTGGTTTCACT; site = the 11-nt target
In short: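 Targets and IS621 bridge RNA target-binding loops were paired in oligos, each with a promoter, a barcode and the J23119-driven first 104 bridge RNA bases. A vector carrying the remaining 73 bp and a T7-inducible recombinase received these by Gibson cloning, and the pool was co-electroporated into E. coli with a donor plasmid. Duplicate plates contained chloramphenicol/ampicillin LB agar (control) or chloramphenicol/ampicillin/kanamycin with 0.1 mM IPTG. Recombination efficiency comes from averaged, control-corrected counts per million of recombinant-junction barcodes, reported as log10(CPM+1).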
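Note: IS621 recombinase and bridge RNA in Escherichia coli cells.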

Row | Sequence | recombinant barcode read abundance (log10)
1 | ATGGCGCCTTGGGTTCTAACCTGTTGCCT (site ATGGCGCCTAG) | 0.856
2 | ATTAAGTCTTGGGTTCTAACCTGTTGCCT (site AATAAGTCTAG) | 0.0662
3 | ATTAAGTCTTGGGTTCTAACCTGTTGCCT (site ACTAAGTCTAG) | 0.08
4 | ATTAAGTCTTGGGTTCTAACCTGTTGCCT (site AGTAAGTCTAG) | 0.0808
5 | ATTAAGTCTTGGGTTCTAACCTGTTGCCT (site ATTAAGTCTAG) | 0.359
6 | ATTAGGACTTGGGTTCTAACCTGTTGCTG (site ATTAGGACTCA) | 2.12
7 | ATTAGGACTTGGGTTCTAACCTGTTGCTG (site ATTAGGACTCT) | 1.56
8 | ATTCAGACTTGGGTTCTAACCTGTTGCGG (site ATCCAGGCTCC) | 0.113
9 | ATTCAGACTTGGGTTCTAACCTGTTGCGG (site ATTCAGACTCC) | 2.33
10 | ATTCCATCTTGGGTTCTAACCTGTTGCCT (site ATACCATCTAG) | 0.57
11 | ATTCCATCTTGGGTTCTAACCTGTTGCCT (site ATCCCATCTAG) | 0.281
12 | ATTCCATCTTGGGTTCTAACCTGTTGCCT (site ATGCCATCTAG) | 0.12
13 | ATTCCATCTTGGGTTCTAACCTGTTGCCT (site ATTCCATCTAG) | 0.538
14 | ATTGCTACTTGGGTTCTAACCTGTTGCCA (site ATTGCTACTTG) | 0.122
15 | ATTGCTACTTGGGTTCTAACCTGTTGCCA (site GAACAGCCTAC) | 0.143
16 | ATTGGCTCTTGGGTTCTAACCTGTTGCCT (site ATTGGATCTAG) | 0.339
17 | ATTGGCTCTTGGGTTCTAACCTGTTGCCT (site ATTGGCTCTAG) | 0.684
18 | ATTGGCTCTTGGGTTCTAACCTGTTGCCT (site ATTGGGTCTAG) | 0.0639
19 | ATTGGCTCTTGGGTTCTAACCTGTTGCCT (site ATTGGTTCTAG) | 0.0735
20 | ATTGGTCCTTGGGTTCTAACCTGTTGCAT (site ATTGCTCCTAG) | 0.364
21 | ATTGGTCCTTGGGTTCTAACCTGTTGCAT (site ATTGGTCCTAT) | 1.92
22 | ATTTCGACTTGGGTTCTAACCTGTTGCGG (site ATTTCGACTCC) | 0.713

Row | Sequence | recombinant barcode read abundance (log10)
23 | ATTTCGACTTGGGTTCTAACCTGTTGCGG (site GCAGGTGCTAA) | 0.021
24 | ATTTCTACTTGGGTTCTAACCTGTTGCGA (site ATTTCTACTTC) | 0.194
25 | ATTTCTACTTGGGTTCTAACCTGTTGCGA (site GTTTCTACTTA) | 0.102
26 | ATTTGGACTTGGGTTCTAACCTGTTGCCT (site ATTTGAACTAG) | 0.173
27 | ATTTGGACTTGGGTTCTAACCTGTTGCCT (site ATTTGCACTAG) | 0.0773
28 | ATTTGGACTTGGGTTCTAACCTGTTGCCT (site ATTTGGACTAG) | 0.111
29 | ATTTGGACTTGGGTTCTAACCTGTTGCCT (site ATTTGTACTAG) | 0.0943
30 | CAAAAGGCTTGGGTTCTAACCTGTTGCCT (site ATCGTACCTTA) | 0.469
31 | CAAAAGGCTTGGGTTCTAACCTGTTGCCT (site CAAAAGGCTAG) | 0.0565
32 | CAAACAACTTGGGTTCTAACCTGTTGCCT (site CAAACAACTAG) | 0.235
33 | CAAACAACTTGGGTTCTAACCTGTTGCCT (site CAAACACCTAG) | 0.188
34 | CAAACAACTTGGGTTCTAACCTGTTGCCT (site CAAACAGCTAG) | 0.101
35 | CAAACAACTTGGGTTCTAACCTGTTGCCT (site CAAACATCTAG) | 0.133
36 | CAAACTACTTGGGTTCTAACCTGTTGCTA (site CAAACTACTGT) | 0.011
37 | CAAACTACTTGGGTTCTAACCTGTTGCTA (site CAAACTACTTA) | 0.386
38 | CAAACTCCTTGGGTTCTAACCTGTTGCAT (site CAAACTCCTAA) | 0.116
39 | CAAACTCCTTGGGTTCTAACCTGTTGCAT (site CAAACTCCTAC) | 0.0268
40 | CAAACTCCTTGGGTTCTAACCTGTTGCAT (site CAAACTCCTAG) | 0.0257
41 | CAAACTCCTTGGGTTCTAACCTGTTGCAT (site CAAACTCCTAT) | 0.713
42 | CAAACTCCTTGGGTTCTAACCTGTTGCCT (site CAAACTCCTAA) | 0.137
43 | CAAACTCCTTGGGTTCTAACCTGTTGCCT (site CAAACTCCTAC) | 0.0217
